Reference: article PMC4506051, “Pharmacokinetic Profiles of Active Ingredients and Its Metabolites Derived from Rikkunshito, a Ghrelin Enhancer, in Healthy Japanese Volunteers: A Cross-Over, Randomized Study” (PLoS ONE, 2015)

Assays:
[1] = Stability of ingredients in gastric pH solution (pH 1.2, 37°C); assay type: physicochemical
Protocol: Rikkunshito gradually dissolved in acidic solution (pH 1.2) at 37°C, and the concentration of atractylodin after adding 0.25, 0.5, 1, and 2 h was measured by gas chromatography–mass spectrometry.

[2] = Exploratory trial: plasma concentration of rikkunshito ingredients after single oral rikkunshito 7.5 g; assay type: in vivo
Protocol: A random sequence was generated using a computer. The safety endpoint was evaluated in all volunteers.
(§1) In the first exploratory trial, 20-mL blood samples were collected from the cutaneous vein in the subjects’ forearm via a blood sampling tube that contained heparin at 0 (preadministration), 0.5, 1, 2, 4, and 8 h after a single oral administration of rikkunshito (Lot E24652). The dose of rikkunshito used in this trial was 7.5 g/day, which is the clinical daily dose, to widely explore rikkunshito-derived ingredients that enter the blood. Along with plasma, urine samples were collected at three points: between dinner and bedtime (preadministration), between 0 and 4 h after administration, and between 4 and 8 h after administration. The blood was immediately centrifuged at 1700 ×g for 10 min to obtain plasma. Plasma and urine fractions were stored at −80°C or lower until analysis.
(§2) For quantification of synephrine, 5 µL of standard solution or methanol was added to 100 µL plasma or urine samples followed by mixing. Ten microliters of erythromycin [internal standard (IS)] solution was added to the solutions followed by mixing and centrifugation (20,400 ×g, 5 min, 4°C). The supernatants were loaded onto an Ostro 96-well plate (Waters) and centrifuged (1500 ×g, 3 min, 4°C) followed by injection into the LC–MS/MS.
(§3) For quantification of 30 ingredients other than atractylodin and synephrine, 25 µL of standard solution or methanol was added to 500 µL plasma or urine samples followed by mixing. Atractylenolide III or digoxin (IS) solution (50 μL) was added to the solutions followed by mixing. For urine, 400 µL of blank plasma was added to the solutions. Ammonium acetate solution (100 mM, 100 or 400 µL) was added to the solutions followed by mixing. For enzymatic treatment, plasma and urine samples were incubated with β-glucuronidase (100 units in 100 mM ammonium acetate) for 2 h at 37°C. A solid-phase cartridge (OASIS HLB, 30 mg/1cc, Waters) was conditioned with methanol and 10 mM ammonium acetate solution, and the samples were loaded onto the cartridge. The cartridge was washed water : methanol (9:1, v/v), and 1.5 mL of methanol and 30 µL of propylene glycol were added to the cartridge to elute the analytes. The mixtures were dried at 25°C under a stream of nitrogen gas. Furthermore, 100 μL of 10 mM ammonium acetate : methanol (8:2, v/v) was added to the dried samples followed by mixing and sonication. The solutions were filtered (0.22 µm) and followed by injection into the LC–MS/MS system. […] Those analytical conditions are summarized in S2 Table and S3 Table.

[3] = Exploratory trial: amount of rikkunshito ingredients in urine; assay type: in vivo, human; conditions: mean ± S.D., n = 4; for Amount in urine, 0–4 h: 0–4 h after single oral rikkunshito 7.5 g; for Amount in urine, 4–8 h: 4–8 h after single oral rikkunshito 7.5 g; for Amount in urine, Pre: preadministration (between dinner and bedtime)
Protocol: as §1, §2, §3

[4] = rikkunshito in acidic solution (pH 1.2) at 37°C, 0.5 h
[5] = rikkunshito in acidic solution (pH 1.2) at 37°C, 1 h
[6] = rikkunshito in acidic solution (pH 1.2) at 37°C, 2 h

| SMILES | Stability in gastric pH solution, Quantitative value ([1]; 0.5 h, pH 1.2) [ng/mL] | Stability in gastric pH solution, Quantitative value ([1]; 1 h, pH 1.2) [ng/mL] | Stability in gastric pH solution, Quantitative value ([1]; 2 h, pH 1.2) [ng/mL] | Plasma concentration, 0 h ([2]; in vivo, po) | Plasma concentration, 1 h ([2]; in vivo, po) | Plasma concentration, 2 h ([2]; in vivo, po) | Plasma concentration, 8 h ([2]; in vivo, po) | Amount in urine, 0–4 h [3] | Amount in urine, 4–8 h [3] [ng] | Amount in urine, Pre [3] | Plasma concentration, 0.5 h ([2]; in vivo, po) | Stability in gastric pH solution, Quantitative value [1, 4] [ng/mL] | Stability in gastric pH solution, Quantitative value [1, 5] [ng/mL] | Stability in gastric pH solution, Quantitative value [1, 6] [ng/mL] | also measured |
| --- | --- | --- | --- | --- | --- | --- | --- | --- | --- | --- | --- | --- | --- | --- | --- |
| CC(C)=CCC[C@](C)(O)[C@H]1CC[C@]2(C)[C@@H]1[C@H](O)C[C@@H]1[C@@]3(C)CC[C@H](O)C(C)(C)[C@@H]3[C@@H](O[C@@H]3O[C@H](CO)[C@@H](O)[C@H](O)[C@H]3O[C@@H]3O[C@H](CO)[C@@H](O)[C@H](O)[C@H]3O)C[C@]12C [Ginsenoside Rf] | – | – | – | – | – | – | – | 48.2 ± 64.4 ng | 23.0 ± 20.4 | BQL | – | 190 | 159 | 113 | – |
| CC1(C)[C@@H](O[C@@H]2O[C@H](C(=O)O)[C@@H](O)[C@H](O)[C@H]2O)CC[C@]2(C)[C@H]3C(=O)C=C4[C@@H]5C[C@@](C)(C(=O)O)CC[C@]5(C)CC[C@@]4(C)[C@]3(C)CC[C@@H]12 [Glycyrrhetic acid 3-O-glucuronide, Glycyrrhetinic acid 3-O-glucuronide] | – | – | – | BQL | 0.0448 ± 0.0895 ng/mL | 0.244 ± 0.0735 ng/mL | 0.247 ± 0.0622 ng/mL | BQL | 6.94 ± 13.9 | BQL | BQL | – | – | – | Plasma concentration, 4 h ([2]; in vivo, po): 0.327 ± 0.0656 ng/mL |
| CC1(C)CC[C@]2(C(=O)O)CC[C@]3(C)C(=CC[C@@H]4[C@@]5(C)CC[C@H](O)C(C)(C)[C@@H]5CC[C@]43C)[C@@H]2C1 [Oleanolic acid] | – | – | – | BQL | BQL | – | – | – | – | – | BQL | 3.61 | 3.54 | 3.28 | concentration at 2 h ([2]; human, in vivo, po): 0.198 ± 0.395 ng/mL; concentration at 4 h ([2]; human, in vivo, po): 0.903 ± 0.983 ng/mL; concentration at 8 h ([2]; human, in vivo, po): 1.12 ± 0.89 ng/mL; Cmax ([2]; human, in vivo, rikkunshito 7.5 g, four subjects, highest mean concentration over 0–8 h, read-out: C max in plasma (exploratory trial)): 1.12 ng/mL |
| COc1ccc(-c2cc(=O)c3c(OC)c(OC)c(OC)c(OC)c3o2)cc1 [Tangeretin] | 5.50 | 6.62 | 5.95 | BQL | BQL | BQL | BQL | – | – | – | – | – | – | – | concentration at 0.5 h ([2]; human, in vivo, po): 0.00573 ± 0.0115 ng/mL; Plasma concentration, 4 h ([2]; in vivo, po): BQL |
| CCCCCCCCC[C@H](O)CC(=O)CCc1ccc(O)c(OC)c1 [[10]-gingerol, [10]-Gingerol] | – | – | – | – | – | – | – | – | – | – | – | 8.07 | 7.53 | 7.62 | – |
| CC(C)=CCC[C@](C)(O)[C@H]1CC[C@]2(C)[C@@H]1[C@H](O)C[C@@H]1[C@@]3(C)CC[C@H](O)C(C)(C)[C@@H]3[C@@H](O[C@@H]3O[C@H](CO)[C@@H](O)[C@H](O)[C@H]3O[C@@H]3O[C@@H](C)[C@H](O)[C@@H](O)[C@H]3O)C[C@]12C [ginsenoside Rg2, Ginsenoside Rg2] | – | – | – | – | – | – | – | – | – | – | – | 121 | 157 | 126 | – |

Further lines, with some results ahead:

| Stability in gastric pH solution, Quantitative value ([1]; 0.5 h, pH 1.2) [ng/mL] | Stability in gastric pH solution, Quantitative value ([1]; 1 h, pH 1.2) [ng/mL] | Stability in gastric pH solution, Quantitative value ([1]; 2 h, pH 1.2) [ng/mL] | Plasma concentration, 0 h ([2]; in vivo, po) | Plasma concentration, 1 h ([2]; in vivo, po) | Plasma concentration, 2 h ([2]; in vivo, po) | Plasma concentration, 8 h ([2]; in vivo, po) | Amount in urine, 0–4 h [3] | Amount in urine, 4–8 h [3] [ng] | Amount in urine, Pre [3] | SMILES | Plasma concentration, 0.5 h ([2]; in vivo, po) | Stability in gastric pH solution, Quantitative value [1, 4] [ng/mL] | Stability in gastric pH solution, Quantitative value [1, 5] [ng/mL] | Stability in gastric pH solution, Quantitative value [1, 6] [ng/mL] | also measured |
| --- | --- | --- | --- | --- | --- | --- | --- | --- | --- | --- | --- | --- | --- | --- | --- |
| 297 | 202 | 86.4 | BQL | BQL | BQL | BQL | – | – | – | CC(C)=CCC[C@](C)(O[C@@H]1O[C@H](CO[C@@H]2O[C@H](CO)[C@@H](O)[C@H](O)[C@H]2O)[C@@H](O)[C@H](O)[C@H]1O)[C@H]1CC[C@]2(C)[C@@H]1[C@H](O)C[C@@H]1[C@@]3(C)CC[C@H](O[C@@H]4O[C@H](CO)[C@@H](O)[C@H](O)[C@H]4O[C@@H]4O[C@H](CO)[C@@H](O)[C@H](O)[C@H]4O)C(C)(C)[C@@H]3CC[C@]12C [Ginsenoside Rb1] | BQL | – | – | – | concentration at 4 h ([2]; human, in vivo, po): 0.175 ± 0.118 ng/mL |
| 275 | 168 | 77.3 | – | – | – | – | 202 ± 202 ng | 84.6 ± 90.1 | BQL | CC(C)=CCC[C@](C)(O[C@@H]1O[C@H](CO[C@@H]2OC[C@H](O)[C@H](O)[C@H]2O)[C@@H](O)[C@H](O)[C@H]1O)[C@H]1CC[C@]2(C)[C@@H]1[C@H](O)C[C@@H]1[C@@]3(C)CC[C@H](O[C@@H]4O[C@H](CO)[C@@H](O)[C@H](O)[C@H]4O[C@@H]4O[C@H](CO)[C@@H](O)[C@H](O)[C@H]4O)C(C)(C)[C@@H]3CC[C@]12C [Ginsenoside Rb2] | – | – | – | – | – |
| 188 | 115 | 39.3 | BQL | BQL | BQL | BQL | – | – | – | CC(C)=CCC[C@](C)(O[C@@H]1O[C@H](CO[C@@H]2O[C@@H](CO)[C@H](O)[C@H]2O)[C@@H](O)[C@H](O)[C@H]1O)[C@H]1CC[C@]2(C)[C@@H]1[C@H](O)C[C@@H]1[C@@]3(C)CC[C@H](O[C@@H]4O[C@H](CO)[C@@H](O)[C@H](O)[C@H]4O[C@@H]4O[C@H](CO)[C@@H](O)[C@H](O)[C@H]4O)C(C)(C)[C@@H]3CC[C@]12C [Ginsenoside Rc] | BQL | – | – | – | concentration at 4 h ([2]; human, in vivo, po): 0.0303 ± 0.0605 ng/mL |
| 98.5 | 68.1 | 20.3 | – | – | – | – | – | – | – | CC(C)=CCC[C@](C)(O[C@@H]1O[C@H](CO)[C@@H](O)[C@H](O)[C@H]1O)[C@H]1CC[C@]2(C)[C@@H]1[C@H](O)C[C@@H]1[C@@]3(C)CC[C@H](O[C@@H]4O[C@H](CO)[C@@H](O)[C@H](O)[C@H]4O[C@@H]4O[C@H](CO)[C@@H](O)[C@H](O)[C@H]4O)C(C)(C)[C@@H]3CC[C@]12C [Ginsenoside Rd] | – | – | – | – | Plasma concentration, 0 h ([2]; 0 h (preadministration), single oral rikkunshito 7.5 g, mean ± S.D., n = 4): BQL; Plasma concentration, 0.5 h ([2]; 0.5 h after single oral rikkunshito 7.5 g, mean ± S.D., n = 4): BQL; Plasma concentration, 2 h ([2]; 2 h after single oral rikkunshito 7.5 g, mean ± S.D., n = 4): BQL; Plasma concentration, 4 h ([2]; 4 h after single oral rikkunshito 7.5 g, mean ± S.D., n = 4): BQL; Plasma concentration, 8 h ([2]; 8 h after single oral rikkunshito 7.5 g, mean ± S.D., n = 4): BQL; concentration at 1 h ([2]; human, in vivo, 1 h after single oral rikkunshito 7.5 g, mean ± S.D., n = 4): 0.0308 ± 0.0615 ng/mL |
| 96.7 | 58.4 | 23.7 | – | – | – | – | BQL | 30.6 ± 61.2 | BQL | CC(C)=CCC[C@](C)(O[C@@H]1O[C@H](CO)[C@@H](O)[C@H](O)[C@H]1O)[C@H]1CC[C@]2(C)[C@@H]1[C@H](O)C[C@@H]1[C@@]3(C)CC[C@H](O)C(C)(C)[C@@H]3[C@@H](O[C@@H]3O[C@H](CO)[C@@H](O)[C@H](O)[C@H]3O[C@@H]3O[C@@H](C)[C@H](O)[C@@H](O)[C@H]3O)C[C@]12C [Ginsenoside Re] | – | – | – | – | – |
| 174 | 118 | 41.6 | – | – | – | – | 620 ± 331 ng | 638 ± 319 | BQL | CC(C)=CCC[C@](C)(O[C@@H]1O[C@H](CO)[C@@H](O)[C@H](O)[C@H]1O)[C@H]1CC[C@]2(C)[C@@H]1[C@H](O)C[C@@H]1[C@@]3(C)CC[C@H](O)C(C)(C)[C@@H]3[C@@H](O[C@@H]3O[C@H](CO)[C@@H](O)[C@H](O)[C@H]3O)C[C@]12C [Ginsenoside Rg1] | – | – | – | – | – |
